Reference: ChEMBL document CHEMBL1159148, “Myo-inositol 1,4,6-trisphosphate: A new synthetic Ca2+-mobilising inositol phosphate” (Bioorg Med Chem Lett, 1993)

Organism: Oryctolagus cuniculus
Test: Compound was evaluated for its ability to release [Ca2+] from permeabilised rabbit platelets
Assay type: functional

SMILES	EC50 [nM]
O=P(O)(O)O[C@@H]1[C@H](O)[C@H](O)[C@@H](OP(=O)(O)O)[C@H](OP(=O)(O)O)[C@H]1O (stereo in doubt; form 1) [INS(1,4,5)P3]	180
O=P(O)(O)O[C@@H]1[C@H](O)[C@H](O)[C@@H](OP(=O)(O)O)[C@H](OP(=O)(O)O)[C@H]1O (stereo in doubt; form 2) [INS(1,4,5)P3]	2070
